What was measured:
Format in all cases: cell-based, Escherichia coli
[1] = system: MM294-pET26b45; assay: Experiments with selective cultures: mixed culture, colonies counted on Kan dishes; details: t = 2 hours, complex + or − according to label
Protocol: (§1) 5 ml (OD=1) of the TG1-fd Bla I7 and the MM294-pET26b45 cultures are centrifuged (4000 RPM, 5 minutes) and twice washed in LB for finally being resolved in 5 ml sterile LB. Two cultures are mixed. 1 ml of this culture is diluted in 9 ml LB (5 erlenmeyers in parallell) and the necessary quantity of the ternary complex or the conjugate is added. During one hour at 37° C. incubation takes place whereafter penicilline is introduced in this culture medium (see table above) and agitation is performed during two hours at 37° C.
(§2) Sampling is made at the start and the finish of the reaction which is diluted and put on Tet or Kan boxes. The incubation takes place all night at 37° C. Calculation of the colonies is made the morning after.
(§3) Mixtures have been made of bacteria TG1-fd Bla […] and MM294-pET26b45. These mixtures have been brought into contact with the ternary complex and incubated during one hour by 37° C. to allow the triple complex to be formed on the bacteria. After this incubation penicillin is added in the culture medium and cultures grown in shaking suspensions for two hours at 37° C. Subsequently, these mixtures were plated on Tet dishes and Kan dishes and incubated overnight at 37° C. The next day, the number of colonies was counted.
(§4) The inventors have also been working on the optimisation of the initial number added in the test of the different bacteria.

[2] = system: MM294-pET26b45; assay: Spectrophotometric follow up of the cultures (optical density at 600 nm); details: 200 and 800 mg.L^−1 of penicillin; with or without triple complex according to label; 37° C.
Protocol: (§5) Cultures (15 ml, OD=1) of TG1-fd Bla I7 and of MM294-pET26b45 are centrifuged (4000 RPM, 5 minutes). The pellet is washed twice with LB and is resolved in 15 ml sterile LB. In all cases 1 ml of the culture is diluted in 9 ml LB (11 erlenmeyers). Then the necessary quantity of the triple complexes calculated for complete degradation of the penicillin in two hours incubation is added and inbucated one hour at 37° C. Then penicillin is introduced at the final concentrations as indicated in the table below and for two hours at 37° C.
(§6) A sample is made at the start and then every 30 minutes. The optical density is measured of the sample at 600 nm.
(§7) In the next step, the applicant determined the conditions where optimal measurements could be made. With the help of spectrophotometric techniques the evolution in the optical density of different cultures was followed. […]
(§8) These cultures were made in parallel with an increasing concentration of penicillin increasing in the culture medium from 0 mg.L^−1, 50 mg.L^−1, 100 mg.L^−1, 200 mg.L^−1, 400 mg.L^−1 to 800 mg.L^−1. The quantities of the ternary complex were calculated and adapted such that all the penicillin in the medium of culture were hydrolyzed in two hours. […]

[3] = system: TG1-fd Bla I7; assay: as above; details: 200 and 800 mg.L^−1 of penicillin; with or without ternary complex according to label; 37° C.
Protocol: as §5, §6, §7, §8

[4] = system: TG1-fd Bla I7; assay: Experiments with selective cultures: mixed culture, colonies counted on Tet dishes; details: t = 2 hours; for Bacteria.ml^−1 TG1-fd Bla 17 / % TG1-fd Bla 17: Table 1 results 1; for Bacteria.ml^−1 TG1-fd Bla 17 / Bacteria.ml^−1 TG1-fd Bla I7: complex + or − according to label; for Bacteria.ml^−1 TG1-fd Bla 17: t=0 1.58E+06; for % TG1-fd Bla 17 / % TG1-fd Bla I7: mixture with MM294-pET26b45; for % TG1-fd Bla 17: t=0 20.8%
Protocol: as §1, §2, §3, §4

CC1(C)S[C@@H]2[C@H](NC(=O)Cc3ccccc3)C(=O)N2[C@H]1C(=O)O [penicillin G]
Bacteria.ml^−1 MM294-pET26b45 ([1]; Table 1 results 1, [Pen] 200 mg·L^−1, t=0 6.00E+06): 1 667 ppm
Bacteria.ml^−1 MM294-pET26b45 ([1]; Table 1 results 1, [Pen] 800 mg·L^−1, t=0 6.00E+06): 557 ppm
Bacteria.ml^−1 MM294-pET26b45 ([1]; Table 2 results 1, [Pen] 200 mg·L^−1, t=0 1.73E+07): 410.4 ppm
Bacteria.ml^−1 MM294-pET26b45 ([1]; Table 2 results 1, [Pen] 800 mg·L^−1, t=0 1.73E+07): 659.0 ppm
Bacteria.ml^−1 MM294-pET26b45 ([1]; Table 2 results 2, [Pen] 200 mg·L^−1, t=0 9.00E+07): 82.2 ppm
Bacteria.ml^−1 MM294-pET26b45 ([1]; Table 2 results 2, [Pen] 800 mg·L^−1, t=0 9.00E+07): 60.0 ppm
evolution of optical density of the culture during time [2]: tendency to decrease
evolution of optical density of the culture during time [3]: tendency to decrease
Bacteria.ml^−1 TG1-fd Bla 17 ([4]; [Pen] 200 mg·L^−1): 1 190 ppm
% TG1-fd Bla 17 ([4]; [Pen] 200 mg·L^−1): 15.8%
Bacteria.ml^−1 TG1-fd Bla 17 ([4]; [Pen] 800 mg·L^−1): 1 500 ppm
% TG1-fd Bla 17 ([4]; [Pen] 800 mg·L^−1): 8.9%
Bacteria.ml^−1 TG1-fd Bla I7 ([4]; Table 2 results 1, [Pen] 200 mg·L^−1, t=0 2.05E+07): 351.2 ppm
% TG1-fd Bla I7 ([4]; Table 2 results 1, [Pen] 200 mg·L^−1, t=0 54.2%): 50.3%
Bacteria.ml^−1 TG1-fd Bla I7 ([4]; Table 2 results 1, [Pen] 800 mg·L^−1, t=0 2.05E+07): 439.0 ppm
% TG1-fd Bla I7 ([4]; Table 2 results 1, [Pen] 800 mg·L^−1, t=0 54.2%): 44.1%
Bacteria.ml^−1 TG1-fd Bla I7 ([4]; Table 2 results 2, [Pen] 200 mg·L^−1, t=0 1.37E+08): 48.2 ppm
% TG1-fd Bla I7 ([4]; Table 2 results 2, [Pen] 200 mg·L^−1, t=0 60.4%): 47.1%
Bacteria.ml^−1 TG1-fd Bla I7 ([4]; Table 2 results 2, [Pen] 800 mg·L^−1, t=0 1.37E+08): 2.9 ppm
% TG1-fd Bla I7 ([4]; Table 2 results 2, [Pen] 800 mg·L^−1, t=0 60.4%): 6.9%
